{"source": "ChEMBL document CHEMBL1144207", "about": "“Molecular design of potent tyrosinase inhibitors having the bibenzyl skeleton” (Bioorg Med Chem Lett, 2008)", "target": "T1, Tyrosinase (Agaricus bisporus, UniProt O42713)", "T1 sequence (O42713 whole entry)": "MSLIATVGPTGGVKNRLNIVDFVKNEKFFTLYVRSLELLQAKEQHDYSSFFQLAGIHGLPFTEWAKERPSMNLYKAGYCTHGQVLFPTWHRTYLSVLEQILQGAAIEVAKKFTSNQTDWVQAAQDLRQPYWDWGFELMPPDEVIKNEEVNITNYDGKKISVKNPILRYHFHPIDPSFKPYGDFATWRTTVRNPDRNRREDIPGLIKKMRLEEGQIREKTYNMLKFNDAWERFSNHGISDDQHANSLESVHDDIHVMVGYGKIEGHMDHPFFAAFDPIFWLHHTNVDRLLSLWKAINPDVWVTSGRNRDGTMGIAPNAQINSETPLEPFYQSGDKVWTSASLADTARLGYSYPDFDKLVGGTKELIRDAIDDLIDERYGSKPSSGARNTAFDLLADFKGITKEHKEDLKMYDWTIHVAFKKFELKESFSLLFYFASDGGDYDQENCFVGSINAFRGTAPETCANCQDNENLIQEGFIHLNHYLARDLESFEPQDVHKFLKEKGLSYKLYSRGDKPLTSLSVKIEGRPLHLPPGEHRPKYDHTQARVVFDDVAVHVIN", "note": "pIC50: −log10 of the molar value.", "description": "Inhibition of mushroom tyrosinase"}
{"smiles": "Oc1ccc(CCc2ccc(O)cc2O[C@@H]2OC[C@@H](O)[C@H](O)[C@H]2O)c(O)c1", "values": [{"measurement": "pIC50", "result": 5.80}]}
{"smiles": "Oc1ccc(CCc2ccc(O[C@@H]3OC[C@@H](O)[C@H](O)[C@H]3O)cc2O)c(O)c1", "values": [{"measurement": "pIC50", "result": 6.37}]}
